The text below walks through data of patent US10945989B2, “Perinatal treatment with a flavonoid agonist of the TrkB receptor for BDNF rescues neurogenesis and behavior in the Ts65Dn mouse model of DS” (ALMA MATER STUDIORUM—Universita' di Bologna, priority 2017, dated 2021).

A short description of data set [1]: Body and brain weight, neonatal treatment (P15, P45). It counts as in vivo, mouse. The method, then:
Euploid and Ts65Dn mice received a daily subcutaneous injection (at 9-10 am) of 7,8-DHF (5.0 mg/kg in vehicle: PBS with 1% DMSO) or vehicle from postnatal day 3 (P3) to postnatal day 15. This timing was chosen because it corresponds to that previously used to test the effects of fluoxetine and other pharmacotherapies in the neonate Ts65Dn mouse (Bianchi et al., 2010b; Giacomini et al., 2015; Stagni et al., 2016). Mice that received 7,8-DHF will be called “treated mice” (treated euploid mice: n=25; treated Ts65Dn mice: n=15). Mice that received the vehicle will be called “untreated mice” (untreated euploid mice: n=35; untreated Ts65Dn mice: n=21). […] The brains were excised and cut along the midline. The left hemisphere of a group of mice was fixed by immersion in PFA 4% and frozen, and the left hemisphere of another group of mice was used for Golgi staining. The right hemispheres of all mice was kept at −80° C. and used for western blotting.
Euploid and Ts65Dn mice received a daily subcutaneous injection (at 9-10 am) of 7,8-DHF (5.0 mg/kg in vehicle) or vehicle from postnatal day 3 (P3) to postnatal day P45-P50. […] These mice will be called here P45 mice. Mice were behaviorally tested in the 6 days that preceded the day of sacrifice (FIG. 2B).
The body weight of mice of all groups was recorded prior to sacrifice and the brain weight was recorded immediately after brain removal. The number of animals used for each experimental procedure is specified in the figure legends and in Table 3.

Data set [2] deals with BDNF. In words: Western blot of hippocampal homogenates: BDNF. It counts as in vivo, mouse. The procedure: Euploid and Ts65Dn mice received a daily subcutaneous injection (at 9-10 am) of 7,8-DHF (5.0 mg/kg in vehicle: PBS with 1% DMSO) or vehicle from postnatal day 3 (P3) to postnatal day 15. This timing was chosen because it corresponds to that previously used to test the effects of fluoxetine and other pharmacotherapies in the neonate Ts65Dn mouse (Bianchi et al., 2010b; Giacomini et al., 2015; Stagni et al., 2016). Mice that received 7,8-DHF will be called “treated mice” (treated euploid mice: n=25; treated Ts65Dn mice: n=15). Mice that received the vehicle will be called “untreated mice” (untreated euploid mice: n=35; untreated Ts65Dn mice: n=21). […] The brains were excised and cut along the midline. The left hemisphere of a group of mice was fixed by immersion in PFA 4% and frozen, and the left hemisphere of another group of mice was used for Golgi staining. […]
In homogenates of the hippocampal formation of P15 mice, total proteins were obtained as previously described (Trazzi et al., 2011) and the levels of the following proteins were evaluated: BDNF, TrkB full length (TrkB-FL), phosphorylated TrkB (p-TrkB), the truncated form 1 of the TrkB receptor (TrkB-T1), phosphorylated ERK1 (p-ERK1), phosphorylated ERK2 (p-ERK2), ERK1, ERK2, synaptophysin (SYN), GAPDH and α-Tubulin using the antibodies reported in Table 1. […]
(In western blotting, separated proteins are transferred to a membrane and probed.)

Setting [3] is: P15 Ts65Dn mice, 5.0 mg/kg s.c. daily P3-P15.
Setting [4] is: P45 Ts65Dn mice, 5.0 mg/kg s.c. daily P3-P45.

Turning to `O=c1cc(-c2ccccc2)oc2c(O)c(O)ccc12` [7,8-DHF, 7,8-dihydroxyflavone], the body weight entry in data set [1] (setting [3]) is recorded as “did not further reduce the body weight”; in data set [1] (setting [4]), “did not further reduce their body weight”; in data set [1] (P45 euploid mice, 5.0 mg/kg s.c. daily P3-P45, vs untreated) it was “body weight reduction”. Further, the brain weight result in data set [1] (setting [3]) is “did not cause a further brain weight reduction”; in data set [1] (P15 euploid mice, 5.0 mg/kg s.c. daily P3-P15, vs untreated), “slight but significant brain weight reduction”. In addition, in data set [1] (setting [4]), the “brain weight (reduction vs untreated euploid mice)” value is listed as “this difference disappeared”. Also, the “BDNF levels in the hippocampus” value is recorded as “reduction in BDNF levels” in data set [2] (P15 Ts65Dn mice, statistically significant) and “reduction in BDNF levels” in data set [2] (P15 euploid mice, not statistically significant).
